Read-outs that look alike come from different tables or passages of the source.
Assays:
[1] = tested on: Mycosphaerella graminicola; Anamorph: Septoria tritici; assay: Fungicidal activity: Leaf Blotch of Wheat (SEPTTR), wheat plants variety Yuma; type: in vivo; details: Zymoseptoria tritici
Procedure: Evaluation of Fungicidal Activity: Leaf Blotch of Wheat (Mycosphaerella graminicola; Anamorph: Septoria tritici; Bayer Code […]) Wheat plants (variety Yuma) were grown from seed in a greenhouse in 50% mineral soil/50% soil-less Metro mix until the first leaf was fully emerged, with 7-10 seedlings per pot. These plants were inoculated with an aqueous spore suspension of Septoria tritici either prior to or after fungicide treatments. After inoculation the plants were kept in 100% relative humidity (one day in a dark dew chamber followed by two to three days in a lighted dew chamber) to permit spores to germinate and infect the leaf. The plants were then transferred to a greenhouse at 20° C. for disease to develop.

[2] = tested on: Puccinia triticina. Synonym: Puccinia recondite f. sp. tritici; assay: Fungicidal activity: Wheat Brown Rust (PUCCRT), wheat plants variety Yuma; type: in vivo; design: key to PUCCRT 3DC Disease Control: A: 50-100; B: More than 0-Less than 50; C: Not Tested; D: No activity noticed in this bioassay; details: for pest or weed control at 100 ppm: Puccinia triticina; for PUCCRT 3DC Disease Control: 100 ppm
Procedure: Evaluation of Fungicidal Activity: Wheat Brown Rust (Puccinia triticina. Synonym: Puccinia recondite f. sp. tritici; Bayer Code PUCCRT) Wheat plants (variety Yuma) were grown from seed in a greenhouse in 50% mineral soil/50% soil-less Metro mix until the first leaf was fully emerged, with 7-10 seedlings per pot. These plants were inoculated with an aqueous spore suspension of Puccinia recondite f. sp. tritici either prior to or after fungicide treatments. After inoculation the plants were kept in 100% relative humidity overnight to permit spores to germinate and infect the leaf. The plants were then transferred to a greenhouse set at 24 C for disease to develop.

[3] = 24 h, 1 Day Protectant, read-out: SEPTTR 1DP Disease Control
[4] = 72 h, 3 Day Curative, read-out: SEPTTR 3DC Disease Control
[5] = 24 h, 1 Day Protectant, read-out: PUCCRT 1DP Disease Control
[6] = 72 h, 3 Day Curative, read-out: PUCCRT 3DC Disease Control

`COc1ccnc(C(=O)N[C@H]2COC(=O)[C@H](Cc3ccc(C)cc3)[C@@H](OC(=O)C(C)C)[C@H](C)OC2=O)c1O` [Compound 4] gave a pest or weed control at 100 ppm [1, 3] of 50 to 100%, a pest or weed control at 100 ppm [1, 4] of 0 to 50% and a pest or weed control at 100 ppm [2, 5] of 50 to 100%. The pest or weed control at 100 ppm [2, 6] was 0 to 50% and the melting point was 175 to 179 °C.
With `COc1ccnc(C(=O)N[C@H]2COC(=O)[C@H](CC3CCCCC3)[C@@H](OC(=O)C(C)C)[C@H](C)OC2=O)c1OC(C)=O` [Compound 66, (3S,6S,7R,8R)-3-(3-acetoxy-4-methoxypicolinamido)-8-(cyclohexylmethyl)-6-methyl-4,9-dioxo-1,5-dioxonan-7-yl isobutyrate] the pest or weed control at 100 ppm [1, 3] was 50 to 100%, the pest or weed control at 100 ppm [1, 4] was 50 to 100% and the pest or weed control at 100 ppm [2, 5] was 50 to 100%. The pest or weed control at 100 ppm [2, 6] was 50 to 100% and the melting point was 164 to 170 °C.
`CCC[C@H]1C(=O)OC[C@H](NC(=O)c2nccc(OC)c2O)C(=O)O[C@@H](C)[C@@H]1OC(=O)C(C)C` [Compound 64] gave a pest or weed control at 100 ppm [1, 3] of 50 to 100%, a pest or weed control at 100 ppm [1, 4] of 50 to 100% and a pest or weed control at 100 ppm [2, 5] of 50 to 100%. It also gave a pest or weed control at 100 ppm [2, 6] of 0 to 50% and a melting point of 165 to 168 °C.
With `COc1ccnc(C(=O)N[C@H]2COC(=O)[C@H](CCOC(=O)c3ccccc3)[C@@H](OC(=O)C(C)C)[C@H](C)OC2=O)c1OCOC(=O)C(C)C` [Compound 19, 2-((3S,7R,8R,9S)-8-(isobutyryloxy)-3-(3-(isobutyryloxymethoxy)-4-methoxypicolinamido)-9-methyl-2,6-dioxo-1,5-dioxonan-7-yl)ethyl benzoate] the pest or weed control at 100 ppm [1, 3] was 50 to 100%, the pest or weed control at 100 ppm [1, 4] was 0 to 50% and the pest or weed control at 100 ppm [2, 5] was 50 to 100%. The pest or weed control at 100 ppm [2, 6] was 50 to 100% and the melting point was 48 to 50 °C.
Molecule `COc1ccnc(C(=O)N[C@H]2COC(=O)[C@H](CC3CCCCC3)[C@@H](OC(=O)C(C)C)[C@H](C)OC2=O)c1O` [Compound 61, (3S,6S,7R,8R)-8-(cyclohexylmethyl)-3-(3-hydroxy-4-methoxypicolinamido)-6-methyl-4,9-dioxo-1,5-dioxonan-7-yl isobutyrate] has a pest or weed control at 100 ppm [1, 3] of 50 to 100%, a pest or weed control at 100 ppm [1, 4] of 50 to 100% and a pest or weed control at 100 ppm [2, 5] of 50 to 100%. The pest or weed control at 100 ppm [2, 6] was 0 to 50% and the melting point was 188 to 189 °C.
In the case of `CCCC/C=C/C[C@H]1C(=O)OC[C@H](NC(=O)c2nccc(OC)c2O)C(=O)O[C@@H](C)[C@@H]1OC(=O)C(C)C` [Compound 18], the pest or weed control at 100 ppm [1, 3] is reported as 50 to 100%, the pest or weed control at 100 ppm [1, 4] is reported as 0 to 50% and the “PUCCRT 3DC Disease Control” value ([2]; 3 Day Curative) is reported as “D”. For the same molecule, the pest or weed control at 100 ppm [2, 5] was 50 to 100% and the melting point was 146 to 148 °C.
In the case of `COc1ccnc(C(=O)N[C@H]2COC(=O)[C@H](Cc3ccc(F)cc3F)[C@@H](OC(=O)C(C)C)[C@H](C)OC2=O)c1O` [Compound 10], the pest or weed control at 100 ppm [1, 3] is reported as 50 to 100%, the pest or weed control at 100 ppm [1, 4] is reported as 0 to 50% and the pest or weed control at 100 ppm [2, 5] is reported as 50 to 100%. It also gave a pest or weed control at 100 ppm [2, 6] of 50 to 100% and a melting point of 184 to 185 °C.
In the case of `COc1ccnc(C(=O)N[C@H]2COC(=O)[C@H](Cc3ccc(Cl)cc3)[C@@H](OC(=O)C(C)C)[C@H](C)OC2=O)c1O` [Compound 9], the pest or weed control at 100 ppm [1, 3] is reported as 50 to 100%, the pest or weed control at 100 ppm [1, 4] is reported as 0 to 50% and the pest or weed control at 100 ppm [2, 5] is reported as 50 to 100%. It also gave a pest or weed control at 100 ppm [2, 6] of 50 to 100% and a melting point of 192 to 194 °C.
Molecule `COc1ccnc(C(=O)N[C@H]2COC(=O)[C@H](Cc3cccnc3)[C@@H](OC(=O)C(C)C)[C@H](C)OC2=O)c1OCOC(=O)C(C)C` [Compound 23] has a pest or weed control at 100 ppm [1, 3] of 0 to 50%, a pest or weed control at 100 ppm [1, 4] of 0 to 50% and a pest or weed control at 100 ppm [2, 5] of 50 to 100%. It also gave a pest or weed control at 100 ppm [2, 6] of 50 to 100% and a melting point of 171 to 174 °C.
With `COc1ccnc(C(=O)N[C@H]2COC(=O)[C@H](CC(=O)Oc3ccccc3)[C@@H](OC(=O)C(C)C)[C@H](C)OC2=O)c1O` [Compound 48] the pest or weed control at 100 ppm [1, 3] was 50 to 100%, the pest or weed control at 100 ppm [1, 4] was 0 to 50% and the “PUCCRT 3DC Disease Control” value ([2]; 3 Day Curative) was “D”. The pest or weed control at 100 ppm [2, 5] was 50 to 100% and the melting point was 176 to 178 °C.

— US9131690B2, “Macrocyclic picolinamides as fungicides” (Dow AgroSciences LLC, priority 2012, dated 2015)
